Laboratory results reported in patent US7981438B2, “Use of α-mangostin as a mosquito larvicide” (Wisconsin Alumni Research Foundation, priority 2007, dated 2011).
Where a name gives a salt, the structure may show the parent alone.

How the values were obtained:
[1] = test system: mosquito larvae; test: toxicity assessment (larval mortality, Probit LD50) in mosquito larvae; format: in vivo; conditions: for LD50 in 4th instar (ppm) / LD50 (uM) in 4th instar: 4th instar larvae
Method: Compound was tested at concentrations within the range of 0.65-25.00 μM. Each assay included 60 larvae (1st instar or 4th instar) in 60 ml ddH2O containing either compound or control agent, mortality was recorded until 90% adult emerge rate. The percentage of mortality was transformed into Probit value and plotted against concentration to determine the LD50 value. Each assay was repeated at least three times with different batches of larvae. The mean and standard deviation values are listed above. ND=not determined due to very low mortality.
Compounds were tested at concentrations within the range of 0.65-25.00 μM. Each assay included 60 larvae (1st instar or 4th instar) in 60 ml ddH2O containing either compound or control agent. Mortality was recorded until 90% adult emerge rate. The percentage of mortality was transformed into Probit value and plotted against concentrations to determine the LD50 value. Each assay was repeated at least three times with different batches of larvae.

[2] = test system: mosquito 4th instar larvae; test: neutral lipid levels in the midgut of 4th instar larvae (Red Oil O staining); format: in vivo
Method: The newly molted 4th instar larvae were treated with DMSO (the negative control), 25 μM SCPI-1 (the positive control), and 10 μM α-mangostin. The midgut tissue was dissected out at the indicated point in time after treatment initiation. The dissected treated midgut tissue was stained with Red Oil O for neutral lipids in situ.

[3] = molecular target: T1, recombinant AeSCP-2 (Aedes aegypti, UniProt Q86PR3); test: in vitro competition binding assay, NBD-cholesterol binding to AeSCP-2; design: species or system mosquito; conditions: at 0.1 mM concentration
T1 sequence (Q86PR3 1-110): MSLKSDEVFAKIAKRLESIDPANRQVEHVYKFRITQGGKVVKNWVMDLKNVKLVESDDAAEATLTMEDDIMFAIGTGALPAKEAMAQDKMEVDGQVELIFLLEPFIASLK
Method: At 0.1 mM concentration, α-mangostin decreased NBD-cholesterol binding to AeSCP-2 by 23-29%. […] Specifically, FIG. 1 illustrates the inhibitory effect of α-mangostin on NBD-cholesterol binding to recombinant AeSCP-2. RFU=relative NBD-cholesterol fluorescent unit normalized with NBD-cholesterol background readings. The assays that were used included 5 μM NBD-cholesterol+5 uM AeSCP-2+increasing concentrations of α-mangostin in […] potassium phosphate buffer (pH 7.4).

[4] = test system: complement C3; conditions: compared with phytoestrogens; FIG. 5, Hopert et al. 1998; cited from earlier work
[5] = 1st instar larvae, same LD50 expressed in ppm
[6] = 1st instar larvae, tested 0.65-25.00 μM, mean ± SD
[7] = tested 0.65-25.00 μM, mean ± SD

Row | Compound | LD50 in 1st instar (ppm) [1, 5] [ppm] | LD50 (uM) in 1st instar [1, 6] [µM] | LD50 in 4th instar (ppm) ([1]; same LD50 expressed in ppm) | LD50 (uM) in 4th instar [1, 7] [µM] | fraction of midgut neutral lipids depleted ([2]; 25 μM SCPI-1, 24 hour-old 4th instar larvae) | LD50 (uM) in 1st instar ([1]; mosquito, in vivo) [µM] | LD50 in 1st instar (ppm) ([1]; mosquito, in vivo) | decrease of NBD-cholesterol binding to AeSCP-2 [3] | neutral lipids in the midgut ([2]; 10 μM α-mangostin, after 24 hours treatment, 4th instar larvae) | reproductive side effects in mammals, measured by formation of complement C3 [4]
1 | CC(=O)Nc1ccc(Nc2nc(-c3ccc(Cl)c(Cl)c3)cs2)cc1 [SCPI-1, N-(4-{[4-(3,4-dichlorophenyl)-1,3-thiazol-2-yl]amino}phenyl)acetamide hydrobromide, reference compound] | 1.93 | 4.21 ± 0.38 | (or, 11.04 ppm) | 24.04 ± 4.16 | about ½ |  |  |  |  | 
2 | COc1ccc(-c2cc(=O)c3c(O)cc(O)c(-c4cc(-c5cc(=O)c6c(O)cc(O)cc6o5)ccc4OC)c3o2)cc1 [isoginkgetin] |  |  |  |  |  | 11.29 ± 3.00 | 6.60 |  |  | 
3 | COc1c2c(c(CC=C(C)C)c3oc(=O)c(-c4ccc(O)cc4)c(O)c13)OC(C)(C)C=C2 [lonchocarpic acid] | 5.21 | 11.99 ± 1.93 |  |  |  |  |  |  |  | 
4 | COc1c(O)cc2oc3cc(O)c(CC=C(C)C)c(O)c3c(=O)c2c1CC=C(C)C [α-mangostin, 3,6,8-Trihydroxy-2-methoxy-1,7-bis(3-methylbut-2-enyl)xanthen-9-one] | 1.12 | 2.73 ± 2.46 | (or, 4.18 ppm) | 10.18 ± 1.49 |  |  |  | 23-29% | scant amounts of neutral lipids | does not induce reproductive side effects
5 | obtusauione | 1.62 | 6.36 ± 1.70 |  |  |  |  |  |  |  | 
